Results reported in the NIST ThermoML archive (doi:10.1021/acs.jced.5b00816).

Tests used:
[1] = Molar enthalpy of transition or fusion; conditions: Crystal
[2] = Solid-liquid equilibrium temperature; conditions: 101 kPa; Crystal; DTA
[3] = molar heat capacity at constant pressure; conditions: 101.33 kPa

CNC[C@H](O)[C@@H](O)[C@H](O)[C@H](O)CO [(2R,3R,4R,5S)-6-(methylamino)hexane-1,2,3,4,5-pentaol]
Conditions	Molar enthalpy of transition or fusion [kcal/mol]	Solid-liquid equilibrium temperature [K]
[1]	12.3	–
[2]	–	400.9

molar heat capacity at constant pressure [J/K/mol], [3]
Conditions	Crystal	Metastable liquid
290 K	322	–
295 K	327	–
300 K	333	–
305 K	338	–
310 K	343	–
315 K	348	–
320 K	353	–
325 K	358	–
330 K	362	–
335 K	367	–
340 K	372	–
345 K	377	–
350 K	382	–
355 K	387	–
360 K	392	–
365 K	396	–
370 K	401	–
375 K	406	–
380 K	411	662
385 K	–	664
390 K	–	666
395 K	–	668
400 K	–	670
405 K	–	671
410 K	–	672
415 K	–	673
420 K	–	673
425 K	–	674
430 K	–	676
435 K	–	678
440 K	–	678
